This is an account of results in patent US12692274B2, “Tetrahydroisoquinoline derivatives for the treatment of red blood disorders and inflammatory diseases” (Sanofi, priority 2020, dated 2026).

Structures are written as SMILES. pEC50, pIC50: −log10 of the molar value. Where “and” joins values, the source holds several entries; their conditions need not be identical. Equal values may be shown once. Some results are limits rather than exact numbers.

Experiment [1] has as its target HIS-Keap1 full length / Biotin-Nrf2 (16-mer) (Homo sapiens, UniProt Q14145). The experiment is described as follows: biochemical.
The subject of experiment [2] is NQO1 activation in BEAS-2B cells. The experiment is described as follows: BEAS-2B cellular MTT assay of NQO1 activation, 0.3% HSA. The format is cell-based. The procedure, abridged:
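BEAS-2B cells (<70% confluent in culture, BEBM/SingleQuots without GA-1000) seeded in collagen plates with 0.3% or 0% HSA, reaching 95-100% confluency after 48 h at 37 °C, 5% CO2; MTT read-out.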

Experiment [3] has the same test system. The experiment is described as follows: BEAS-2B cellular MTT assay of NQO1 activation, 0% HSA. Format: cell-based. The procedure, abridged: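 BEAS-2B cells grown in BEBM with BEGM SingleQuots (no GA-1000), kept below 70% confluence, seeded on collagen plates at a density giving 95-100% confluence after 48 h. Plates seeded in medium without HSA (0% HSA condition).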

Setting [4] is: BEAS+ W, read-out: BEAS+ W EC50.
The mark [5] stands for this setting: Homo sapiens, BEAS+ W, read-out: BEAS+ W EC50.
[6] abbreviates: Homo sapiens, Serum Free W, read-out: BEAS EC50 (nM) Serum Free W.
The mark [7] stands for this setting: Serum Free W, read-out: BEAS EC50 (nM) Serum Free W.
Where [8] appears, read: Homo sapiens, BEAS+, read-out: BEAS+ EC50.
Setting [9] is: Homo sapiens, serum free, read-out: BEAS EC50 (nM) serum free.
[10] abbreviates: serum free, read-out: BEAS EC50 (nM) serum free.

HIS-Keap1 full length / Biotin-Nrf2 (16-mer), sequence (Q14145 whole entry): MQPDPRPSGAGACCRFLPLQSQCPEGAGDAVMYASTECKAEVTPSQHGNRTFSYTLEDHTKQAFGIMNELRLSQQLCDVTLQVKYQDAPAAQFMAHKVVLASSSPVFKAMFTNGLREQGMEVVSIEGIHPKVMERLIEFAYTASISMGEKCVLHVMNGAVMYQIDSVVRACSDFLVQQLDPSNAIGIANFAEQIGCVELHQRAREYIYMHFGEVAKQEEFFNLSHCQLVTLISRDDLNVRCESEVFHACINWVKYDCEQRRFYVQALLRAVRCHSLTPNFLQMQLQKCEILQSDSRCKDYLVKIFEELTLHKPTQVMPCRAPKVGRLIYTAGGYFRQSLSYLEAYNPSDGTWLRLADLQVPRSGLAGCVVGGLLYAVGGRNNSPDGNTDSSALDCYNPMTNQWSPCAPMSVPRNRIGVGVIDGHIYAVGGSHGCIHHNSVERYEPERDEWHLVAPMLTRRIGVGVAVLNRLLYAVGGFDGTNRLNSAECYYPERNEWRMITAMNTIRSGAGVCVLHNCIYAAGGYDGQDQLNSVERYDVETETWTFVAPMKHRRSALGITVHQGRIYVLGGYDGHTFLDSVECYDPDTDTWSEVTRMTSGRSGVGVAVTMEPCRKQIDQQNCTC

Take `Cc1c2ccc3c1nnn3CCCCCc1ccc3c(c1)cc(n3C)C(=O)N1CCc3ccc(cc3C1)[C@@H]2[C@H](C)C(=O)O` (racemic) [Compound 113]: the pIC50 in experiment [1] was 8.96 and 9.05. In addition, the pEC50 in experiment [2] (setting [4]) was 7.31; in experiment [2] (setting [5]), 7.20. Also, the values for the concentration for a half-maximal effect (EC50) in experiment [3] (setting [6]) and in experiment [3] (setting [7]) were 1.6 nM and 1.8 nM, respectively.
As for `Cn1c2cc3cc(cnc31)CCCCCOc1ccc(cn1)C(CC(=O)O)c1ccc3c(c1)CN(CC3)C2=O` (racemic) [Compound 158, 2-(33-methyl-2-oxo-15-oxa-1,7,17,33-tetrazahexacyclo[19.5.3.216,19.13,6.15,9.024,28]tritriaconta-3,5,7,9(32),16,18,21(29),22,24(28),30-decaen-20-yl)acetic Acid], the pIC50 in experiment [1] is 8.44 and 8.49. For the same compound, the pEC50 is 6.40 in experiment [2] (BEAS+, read-out: BEAS+ EC50) and 6.39 in experiment [2] (setting [8]). The EC50 in experiment [3] (setting [9]) is 18.2 nM; in experiment [3] (setting [10]), 22.1 nM.
`Cc1c2ccc3c1nnn3CCCCCCc1ccc(cc1)C(=O)N1CCc3ccc(cc3C1)[C@@H]2[C@H](C)C(=O)O` (racemic) [Compound 200] gave a negative logarithm of the IC50 (pIC50) in experiment [1] of 7.06. In addition, the pEC50 is 8.03 in experiment [2] (BEAS+, read-out: BEAS+ EC50) and 8.02 in experiment [2] (setting [8]). Besides, the concentration giving a half-maximal response (EC50) in experiment [3] (setting [9]) stood at 3.4 nM; in experiment [3] (setting [10]), 6.5 nM.
For `C[C@H](C(=O)O)[C@@H]1c2ccc(nc2)OCCCCCc2ccc(cc2)C(=O)N2CCc3ccc1cc3C2` (single isomer, unassigned) [Compound 127], the negative logarithm of the IC50 (pIC50) in experiment [1] is 8.42 and 8.41. For the same compound, the pEC50 is 9.22 in experiment [2] (BEAS+, read-out: BEAS+ EC50) and 9.40 in experiment [2] (setting [8]). Further, in experiment [3] (setting [9]), the EC50 amounted to 0.3 nM.
Regarding `Cc1c2ccc3c1nnn3CCCCCCc1ccc3c(c1)cc(n3C)C(=O)N1CCc3ccc(cc3C1)[C@@H]2[C@H](C)C(=O)O` [Compound 34], the negative-log IC50 (pIC50) in experiment [1] is 8.77 and 9.22. Besides, the pEC50 in experiment [2] (setting [4]) and in experiment [2] (setting [5]) was 6.72 throughout. For the same compound, the values for the concentration giving a half-maximal response (EC50) in experiment [3] (setting [6]) and in experiment [3] (setting [7]) were 3.6 nM and 3.8 nM, respectively.
In the case of `O=C(O)C[C@H]1c2cnc(nc2)OCC/C=C/Cc2c(F)c(F)c(c(F)c2F)C(=O)N2CCc3ccc1cc3C2` [Compound 35], in experiment [1], the pIC50 was 6.08 and 6.18. For the same compound, the pEC50 in experiment [2] (setting [5]) is < 5.00. Also, the EC50 in experiment [3] (setting [6]) is > 1000 nM.
In the case of `Cc1c2cnc3c1nnn3CCCCCCc1c(F)c(F)c(c(F)c1F)C(=O)N1CCc3ccc(cc3C1)[C@@H]2[C@@H](C)C(=O)O` [Compound 36], in experiment [1], the negative logarithm of the IC50 (pIC50) is 7.90 and 8.60. Besides, the pEC50 is 7.02 in experiment [2] (setting [4]) and 6.73 in experiment [2] (setting [5]). Also, the values for the EC50 in experiment [3] (setting [6]) and in experiment [3] (setting [7]) were 35 nM and 36.7 nM, respectively.
In the case of `Cc1c2ccc3c1nnn3CCCCCCc1ccc(cc1OC(F)F)C(=O)N1CCc3ccc(cc3C1)[C@@H]2CC(=O)O` [Compound 37], in experiment [1], the negative-log IC50 (pIC50) is 9.00 and 9.10. Moreover, the pEC50 is 7.14 in experiment [2] (setting [4]) and 7.00 in experiment [2] (setting [5]). The concentration for a half-maximal effect (EC50) in experiment [3] (setting [6]) was 18.1 nM; in experiment [3] (setting [7]), 18.2 nM.
Take `Cc1c2ccc3c1nnn3CCCCCc1ccc(cc1OC(F)F)C(=O)N1CCc3ccc(cc3C1)[C@@H]2CC(=O)O` [Compound 38]: the pIC50 in experiment [1] is 9.40 and 9.52. Besides, the negative logarithm of the EC50 (pEC50) in experiment [2] (setting [4]) was 7.77; in experiment [2] (setting [5]), 7.82. Further, the EC50 came to 4.8 nM in experiment [3] (setting [6]) and 4.5 nM in experiment [3] (setting [7]).
As to `Cc1c2ccc3c1nnn3CCCCCCc1ccc3c(c1)cc(n3CC(F)F)C(=O)N1CCc3ccc(cc3C1)[C@@H]2CC(=O)O` [Compound 39], the pIC50 in experiment [1] is 9.00 and 8.96. For the same compound, the negative logarithm of the EC50 (pEC50) in experiment [2] (setting [4]) was 6.27 and 6.23; in experiment [2] (setting [5]), 6.31. In addition, the EC50 is 5.9 nM in experiment [3] (setting [6]); 4.2 nM and 4.3 nM in experiment [3] (setting [7]).
For the compound `O=C(O)C[C@@H]1c2cnc(nc2)OCC/C=C/Cc2c(F)c(F)c(c(F)c2F)C(=O)N2CCc3ccc1cc3C2` [Compound 40], in experiment [1], the pIC50 is 7.34 and 7.27. In addition, the negative-log EC50 (pEC50) in experiment [2] (setting [5]) was 5.45. The half-maximal effective concentration (EC50) in experiment [3] (setting [6]) is > 1000 nM.
For the compound `Cc1c2ccc3c1nnn3CCCCCCc1ccc(cc1OC(F)(F)F)C(=O)N1CCc3ccc(cc3C1)[C@@H]2CC(=O)O` [Compound 42], the negative-log IC50 (pIC50) in experiment [1] is 9.05 and 8.85. For the same compound, the pEC50 in experiment [2] (setting [4]) was 7.27; in experiment [2] (setting [5]), 7.46. Besides, the EC50 in experiment [3] (setting [6]) stood at 8.7 nM.
Take `Cc1c2n(C)c3ccc(cc13)C/C=C\CCCn1nnc3c(C)c(cnc31)[C@H](CC(=O)O)c1ccc3c(c1)CN(CC3)C2=O` [Compound 43]: in experiment [1], the pIC50 was 9.70. The negative logarithm of the EC50 (pEC50) was 7.36 and 7.43 in experiment [2] (setting [4]); 7.37 in experiment [2] (setting [5]). Also, the half-maximal effective concentration (EC50) was 4.4 nM in experiment [3] (setting [6]); 4.3 nM and 3.7 nM in experiment [3] (setting [7]).
Turning to `O=C(O)C[C@@H]1c2cnc(nc2)OCCCCCc2c(F)c(F)c(c(F)c2F)C(=O)N2CCc3ccc1cc3C2` [Compound 44], the pIC50 in experiment [1] is 8.17 and 8.29. Also, the pEC50 in experiment [2] (setting [5]) was 5.81. For the same compound, the half-maximal effective concentration (EC50) in experiment [3] (setting [6]) was 393 nM.
Consider `O=C(O)C[C@H]1c2cnc(nc2)OCCCCCc2c(F)c(F)c(c(F)c2F)C(=O)N2CCc3ccc1cc3C2` [Compound 45], for which, in experiment [1], the pIC50 was 6.64 and 6.61. In addition, the negative-log EC50 (pEC50) in experiment [2] (setting [5]) is < 5.00. The EC50 in experiment [3] (setting [6]) was > 1000 nM.
For the compound `C[C@@H](C(=O)O)[C@@H]1c2ccc(nc2)OCC/C=C/Cc2ccc(cc2)C(=O)N2CCc3ccc1cc3C2` [Compound 46], the negative-log IC50 (pIC50) in experiment [1] was 9.40 and 9.52. Moreover, the negative-log EC50 (pEC50) was 8.70 in experiment [2] (setting [4]) and 8.48 in experiment [2] (setting [5]). Also, the concentration giving a half-maximal response (EC50) is 0.7 nM in experiment [3] (setting [6]) and 0.5 nM in experiment [3] (setting [7]).
In experiment [1], `C[C@H](C(=O)O)[C@@H]1c2ccc(nc2)OCC/C=C/Cc2ccc(cc2)C(=O)N2CCc3ccc1cc3C2` [Compound 47] showed a pIC50 of 7.58. In addition, the pEC50 in experiment [2] (setting [4]) is 7.03 and 7.01; in experiment [2] (setting [5]) it was 6.85. Also, the concentration giving a half-maximal response (EC50) in experiment [3] (setting [6]) is 26.2 nM; in experiment [3] (setting [7]), 26 nM and 28.7 nM.
On to `Cc1c2ccc3c1nnn3CCCCCCc1ccc(c3cccnc13)C(=O)N1CCc3ccc(cc3C1)[C@@H]2CC(=O)O` [Compound 48], for which, in experiment [1], the pIC50 was 10.00 and 9.70. The pEC50 in experiment [2] (setting [4]) is 7.62; in experiment [2] (setting [5]) it was 7.58. The figures for the 50% effective concentration (EC50) in experiment [3] (setting [6]) and in experiment [3] (setting [7]) were 12 nM and 9.1 nM, respectively.
Turning to `Cc1c2cnc3c1nnn3CCCCCc1cccc3c1cc(n3C)C(=O)N1CCc3ccc(cc3C1)C2CC(=O)O` (stereo not drawn) [Compound 49], in experiment [1], the IC50 was 0.6 nM (2×) and 0.4 nM and 0.5 nM. Also, the pEC50 in experiment [2] (setting [4]) was 7.03; in experiment [2] (setting [5]) it was 6.93. The values for the 50% effective concentration (EC50) in experiment [3] (setting [6]) and in experiment [3] (setting [7]) were 27 nM and 28.8 nM, respectively.
`Cc1c2ccc3c1nnn3CCCCCCc1ccc(c3ncccc13)C(=O)N1CCc3ccc(cc3C1)[C@@H]2CC(=O)O` [Compound 50]: the negative logarithm of the IC50 (pIC50) in experiment [1] is 9.70 and 9.52. Also, the results for the negative logarithm of the EC50 (pEC50) in experiment [2] (setting [4]) and in experiment [2] (setting [5]) were 6.86 and 7.05, respectively. Also, the concentration for a half-maximal effect (EC50) amounted to 57.3 nM in experiment [3] (setting [6]) and 47.6 nM in experiment [3] (setting [7]).
As for `Cc1c2ccc3c1nnn3CCCCCc1ccc(c3ncccc13)C(=O)N1CCc3ccc(cc3C1)[C@@H]2CC(=O)O` [Compound 51], the negative-log IC50 (pIC50) in experiment [1] is 9.52 and 9.70. In addition, the negative-log EC50 (pEC50) is 6.90 in experiment [2] (setting [4]) and 7.15 in experiment [2] (setting [5]). Besides, the EC50 turned out to be 44.9 nM in experiment [3] (setting [6]) and 38.6 nM in experiment [3] (setting [7]).
In the case of `C[C@H](C(=O)O)[C@@H]1c2ccc(nc2)OCCCCCc2ccc(cc2)C(=O)N2CCc3ccc1cc3C2` [Compound 55], the pIC50 in experiment [1] is 6.67 and 6.65 and 6.66 and 6.70. Further, the pEC50 is 6.45 in experiment [2] (setting [4]) and 6.32 in experiment [2] (setting [5]). Moreover, the EC50 was determined as 125 nM in experiment [3] (setting [6]) and 147 nM in experiment [3] (setting [7]).
Take `Cc1cc2ncc1[C@@H]([C@H](C)C(=O)O)c1ccc3c(c1)CN(CC3)C(=O)c1ccc(cc1)C/C=C/CCO2` [Compound 58]: the pIC50 in experiment [1] was 7.96 and 8.08. Also, the results for the pEC50 in experiment [2] (setting [4]) and in experiment [2] (setting [5]) were 7.45 and 7.58, respectively. Moreover, the results for the concentration for a half-maximal effect (EC50) in experiment [3] (setting [6]) and in experiment [3] (setting [7]) were 9.7 nM and 8.8 nM, respectively.
